Results published in patent publication US20240271096A1, “EFFICIENT DIFFERENTIATION OF SECOND HEART FIELD CARDIAC PROGENITOR CELLS AND RIGHT VENTRICLE CARDIOMYOCYTES FROM HUMAN PLURIPOTENT STEM CELLS” (Wisconsin Alumni Research Foundation, priority 2023, published 2024).

Tests used:
Assay type in all cases: cell-based, human
hiPSC-derived cells = test: Flow cytometry of cardiac troponin T (cTnT); conditions: 1 μmol/L on day 0; day 12; n=4; mean±SD; control 82.1±2.6%, p=0.04
Method: (§1) For LV-cardiomyocyte differentiation, cardiac differentiation was performed according to the protocol published by (Lian et al., 2012, Proc Natl Acad Sci USA 109:[…]-57). Cells were dissociated with StemPro Accutase Cell Dissociation Reagent at 37° C. for 5 minutes. HESCs were seeded on Matrigel-coated 24-well plates (Corning) in StemFlex Medium supplemented with 10 μmol/[…] were seeded on iMatrix-511-coated 12-well plates (Corning) in StemFit A[…] supplemented with 10 μmol/[…] at seeding densities of 1×10^5 cells/cm^2 for hESCs and 1.25-2.5×10^4 cells/cm^2 for hiPSCs. Cells were cultured for 4 days until the start of differentiation (day 0). On day 0, the medium was changed to RPMI 1640 Medium (Thermo Fisher Scientific) supplemented with B-27 Supplement minus insulin (Thermo Fisher Scientific) (RPMI/B27-insulin) or B-27 Supplement with insulin (Thermo Fisher Scientific), and 12 μmol/L CHIR 99021 (SelleckChem, Houston, TX, United States), and the cells incubated in this medium for 24 h (day 1). On day 1, the medium was changed to RPMI/B27-insulin. […] On day 3, the medium was changed to RPMI/B27-insulin supplemented with 5 μmol/L IWP2 (SelleckChem) and on day 5, the medium was changed to 1 ml RPMI/B27-insulin. […] The cells were resuspended in 0.5% bovine serum albumin (Merck)/PBS and analyzed with an Attune NxT Flow Cytometer (Thermo Fisher Scientific).

reporterless hiPSC line = test: Immunostaining of marker proteins in hiPSC-derived cardiac progenitor cells and cardiomyocytes
Method: For LV-cardiomyocyte differentiation, cardiac differentiation was performed according to the protocol published by (Lian et al., 2012, Proc Natl Acad Sci USA 109:[…]-57). Cells were dissociated with StemPro Accutase Cell Dissociation Reagent at 37° C. for 5 minutes. HESCs were seeded on Matrigel-coated 24-well plates (Corning) in StemFlex Medium supplemented with 10 μmol/[…] were seeded on iMatrix-511-coated 12-well plates (Corning) in StemFit A[…] supplemented with 10 μmol/[…] at seeding densities of 1×10^5 cells/cm^2 for hESCs and 1.25-2.5×10^4 cells/cm^2 for hiPSCs. Cells were cultured for 4 days until the start of differentiation (day 0). On day 0, the medium was changed to RPMI 1640 Medium (Thermo Fisher Scientific) supplemented with B-27 Supplement minus insulin (Thermo Fisher Scientific) (RPMI/B27-insulin) or B-27 Supplement with insulin (Thermo Fisher Scientific), and 12 μmol/L CHIR 99021 (SelleckChem, Houston, TX, United States), and the cells incubated in this medium for 24 h (day 1). On day 1, the medium was changed to RPMI/B27-insulin. […] On day 3, the medium was changed to RPMI/B27-insulin supplemented with 5 μmol/L IWP2 (SelleckChem) and on day 5, the medium was changed to 1 ml RPMI/B27-insulin. From day 7, the cells were cultured with RPMI/B27-insulin, and the cells were fed every other day. On day 12, the cells were washed with PBS (Thermo Fisher Scientific) and cultured with DMEM or RPMI, no glucose supplemented with 8 mmol/L L-(+)-Lactic acid (Merck) (Tohyama et al., 2013 Cell Stem Cell, 12:127-37). The medium was changed every other day until day 17. After day 17, the cells were cultured with RPMI/B27 and fed every 2 to 3 days. For long-term culture, the cells were dissociated with TrypLETM Select Enzyme (10×) (Thermo Fisher Scientific) at 37° C. for 15-20 minutes and seeded on Matrigel- or iMatrix-511-coated plates. […] For FIG. 15A and FIG. 15B, dorsomorphin (DM) or 3 μg/L insulin were added on day 0 (for 24 hours), 1, 3, or 5 (for 48 hours). Cells were plated on iMatrix-511-coated plates and fixed in 4% paraformaldehyde (Nacalai, Kyoto, Japan) for 15 minutes. Cells were permeabilized with 0.1% Triton X-100 (Sigma-Aldrich, St. Louis, MO, United States)/PBS and blocked with 10% goat serum (Sigma-Aldrich). Primary and secondary antibodies were diluted in 0.1% Triton X-100/PBS with 5% goat serum and stained with Hoechst 33342 (Thermo Fisher Scientific) at 1 μg/mL, mouse anti-cardiac troponin T monoclonal IgG1 (GTX28295, GeneTex, Irvine, CA, United States) diluted at 1:16000, mouse anti-α-actinin monoclonal IgG1 (A7811, Sigma-Aldrich) diluted at 1:1000, rabbit anti-MLC2v monoclonal IgG (ab92721, Abcam, Cambridge, United Kingdom) diluted at 1:500, rabbit anti-CXCR4 monoclonal IgG (ab181020, Abcam) diluted at 1:2000, rabbit anti-NKX2-5 monoclonal IgG (Cat #. […], Cell Signaling Technology, Danvers, MA, United States) diluted at 1:2500, mouse anti-Nav1.5 (Car #. ASC-013, Alomone Labs) diluted at 1:1000, rabbit anti-connexin 43 (Cat #. 83649, Cell Signaling Technology) diluted at 1:1000, and mouse anti-TBX5 monoclonal IgG2a (Cat #. sc-515536, Santa Cruz Biotechnology, Dallas, TX, United States) diluted at 1:500. These cells were then incubated with a secondary antibody, goat anti-mouse or rabbit polyclonal IgG conjugated with iFluor 488 or 555 (AAT Bioquest, Sunnyvale, CA, United States) diluted at 1:1000, for 1 hour at room temperature. The cells were then observed with IX71 (Olympus, Tokyo, Japan) or EVOS FL Auto (Thermo Fisher Scientific) and images processed with ImageJ ([…] al., 2012, Nat Methods, 9:671-5).

hPSC-CMs = test: Quantitative PCR of purified hiPSC-derived cardiomyocytes; conditions: DMH1-treated cell-derived cardiomyocytes at day 34
Method: as §1, with “PowerUpTM SYBR Green Master Mix (Thermo Fisher Scientific) and QuantStudio 1 (Thermo Fisher Scientific) were used for quantitative PCR (q-PCR), wherein q-PCR data were processed using” for “On day 3,”, “ΔΔCT method.” for “medium was changed to RPMI/B27-insulin supplemented with 5 μmol/L IWP2 (SelleckChem) and on day 5, the medium was changed to 1 ml RPMI/B27-insulin.”, “Data” for “The cells”, “were” for “were resuspended in 0.5% bovine serum albumin (Merck)/PBS and”, “the web-based tool of GeneGlobe Data Analysis Center (Qiagen).” for “an Attune NxT Flow Cytometer (Thermo Fisher Scientific).”

| SMILES | percentages of cTnT-positive cells (hiPSC-derived cells) [%] | CXCR4 expression (immunostaining) (reporterless hiPSC line; 0.5 μmol/L on day 0, day 7) | MLC2v, ventricular marker protein (immunostaining) (reporterless hiPSC line; 0.5 μmol/L on day 0, day 35) | NKX2-5-positive/cTnT-positive cardiomyocytes (reporterless hiPSC line; DMH1 on differentiation day 0, day 10) | TBX5 expression (immunostaining) (reporterless hiPSC line; DMH1 on differentiation day 0, day 10, dose-dependent) | immunostaining signal of Nav1.5 and Connexin 43 (reporterless hiPSC line; cardiomyocytes day 34, vs control) | expression of TGFB1, COL1A1, COL1A2, COL3A1, and COL5A1 (qPCR) (hPSC-CMs) |
| --- | --- | --- | --- | --- | --- | --- | --- |
| c1cc(-c2cnn3cc(-c4ccc(OCCN5CCCCC5)cc4)cnc23)ccn1 [dorsomorphin] | 70.4±7.3 | – | – | – | – | – | – |
| CC(C)Oc1ccc(-c2cnc3c(-c4ccnc5ccccc45)cnn3c2)cc1 [DMH1, dorsomorphin homologue 1, reference compound] | – | upregulated | expressed | induced | reduced | reduction | reduced |
